Source: patent publication US8263555B2 (Alcon Research, Ltd., priority 2007, dated 2012)
Where “and” joins values, the source holds several entries; their conditions need not be identical. Equal values may be shown once. Values belong to the molecule of their own block, whether it stands above or below them.

Assays:
[1] = system: rabbit IOP; assay: Acute IOP response in rabbit eyes, intravitreal administration; assay type: in vivo; conditions: 50 μg, relative to vehicle alone
Description: IOP is determined with an applanation pneumatonometer after light corneal anesthesia with 0.1% proparacaine. After baseline IOP measurements are taken, one eye of each of 7-10 (or both eyes of 5) rabbits per compound dose is topically dosed with compound. Either the contralateral eye is dosed with vehicle or a separate group of rabbits is used for vehicle control. Subsequent IOP measurements are taken at 0.5, 1, 2, 3, and 4 hours. In cases where the compound has poor ocular bioavailability, the compound may need to be administered intracamerally or intravitreally in order to observe the IOP-lowering efficacy.
Conversely, non-peptidic BK antagonists dosed topical ocularly in the ocular hypertensive monkey eyes were ineffective at modulating IOP (see below Example 4).

[2] = target: T1, B2-receptors in h-NPE cells (Homo sapiens, UniProt P30411); assay: BK- and BK-related peptide-induced [Ca^2+]i mobilization in h-NPE cells (agonist potency); assay type: cell-based; conditions: BK = 100%, read-out: Intrinsic Activity (Emax, % max relative to BK)
T1 construct: we discovered and pharmacologically characterized B2-receptor proteins in h-TM, h-CM and h-NPE cells; endogenous in cells; host or cells: immortalized human non-pigmented ciliary epithelial (h-NPE) cells
T1 sequence (P30411 1-391): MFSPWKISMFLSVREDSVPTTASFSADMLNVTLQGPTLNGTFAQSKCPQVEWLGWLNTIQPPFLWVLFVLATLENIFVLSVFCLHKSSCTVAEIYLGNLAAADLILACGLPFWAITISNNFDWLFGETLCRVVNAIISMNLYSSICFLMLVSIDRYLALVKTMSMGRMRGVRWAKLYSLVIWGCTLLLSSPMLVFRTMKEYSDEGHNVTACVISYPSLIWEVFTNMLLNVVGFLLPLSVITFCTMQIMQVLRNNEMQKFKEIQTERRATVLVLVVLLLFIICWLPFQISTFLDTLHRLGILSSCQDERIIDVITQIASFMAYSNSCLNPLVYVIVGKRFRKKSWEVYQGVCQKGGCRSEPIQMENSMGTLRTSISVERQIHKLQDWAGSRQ

[3] = system: Conscious Ocular Hypertensive Cynomolgus Monkey Eyes; assay: IOP response in conscious ocular hypertensive cynomolgus monkey eyes; assay type: in vivo; conditions: for % Change in IOP (mmHg): topical ocular 300 μg, mean ± SEM
Description: Intraocular pressure (IOP) is determined with an Alcon Pneumatonometer (Alcon Laboratories, Inc., Fort Worth, Tex.) after light corneal anesthesia with 0.1% proparacaine. Right eyes are hypertensive as a result of laser trabeculoplasty. After a baseline IOP measurement, test compound is instilled in the right eyes only of 8-10 cynomolgus monkeys. Vehicle is instilled in the right eyes of 5-6 additional animals. […] IOP measurements are also taken on left eyes (normotensive and untreated) at each of these time points. The percent change in IOP from baseline is determined for each animal for every IOP measurement (Sharif et al. J. Ocular Pharmacol. Ther. 17: 305-317, 2001; May et al., J Pharmacol Exp Ther. 306: 301-309, 2003; Sharif et al. Invest. Opthalmol. Vis. Res. 47: 4001-4010, 2006). Group mean and standard error of the mean (SEM) are calculated for each time point. […] In cases where the compound of invention has poor ocular bioavailability, the compound may need to be administered intracamerally or intravitreally in order to observe the IOP-lowering efficacy.

[4] = target: T2, BK B2-Receptor in h-CM cells (Homo sapiens, UniProt P30411); assay: Antagonism of BK-induced [Ca^2+]i mobilization in h-CM cells; assay type: cell-based; conditions: read-out: Antagonist Potency (Ki; nM) vs BK (10 nM) in [Ca^2+]i Mobilization Assay, mean ± SEM or individual experiments
T2 construct: we discovered and pharmacologically characterized B2-receptor proteins in h-TM, h-CM and h-NPE cells; endogenous in cells; host or cells: primary human ciliary muscle (h-CM) cells
T2 sequence (P30411 1-391): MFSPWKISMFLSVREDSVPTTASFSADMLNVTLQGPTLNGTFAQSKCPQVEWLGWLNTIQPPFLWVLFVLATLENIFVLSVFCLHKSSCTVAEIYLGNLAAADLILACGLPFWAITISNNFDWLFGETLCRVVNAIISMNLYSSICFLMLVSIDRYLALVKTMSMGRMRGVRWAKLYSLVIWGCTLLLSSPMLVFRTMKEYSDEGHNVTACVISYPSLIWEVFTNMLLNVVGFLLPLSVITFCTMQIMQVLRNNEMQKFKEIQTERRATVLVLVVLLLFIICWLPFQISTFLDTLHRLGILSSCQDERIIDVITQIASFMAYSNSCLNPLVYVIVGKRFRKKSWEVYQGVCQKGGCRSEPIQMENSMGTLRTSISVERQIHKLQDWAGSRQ
Description: (§1) Opthalmol. Vis. Res. 47: 4001-4019, 2006; Sharif et al., J. Ocular Pharmacol. Ther. 22: 291-309, 2006).
(§2) On the day of the experiment, one vial of FLIPR Calcium Assay Kit dye is re-suspended in 50 mL of a FLIPR buffer consisting of Hank's Balanced Salt Solution (HBSS), 20 mM HEPES, and 2.5 mM probenecid, pH 7.4. Cells are loaded with the calcium-sensitive dye by addition of an equal volume (50 μL) to each well of the 96-well plate and incubated with dye for 1 h at 23° C. After this time, the test compound plate and cell plate are placed in the FLIPR instrument. At the beginning of an experimental run, a signal test is performed to check the basal fluorescence signal from the dye-loaded cells and the uniformity of the signal across the plate. The basal fluorescence is adjusted between 8000-12000 counts by modifying the exposure time, the camera F-stop, or the laser power. Instrument settings for a typical assay are the following: laser power 0.3-0.6 W, camera F-stop F/2, and exposure time 0.4 sec.
(§3) Fluorescence data are collected in real-time at 1.0 sec intervals for the first 60 secs and at 6.0 sec intervals for an additional 120 secs. […] The data are then analyzed using an automated, iterative, sigmoidal curve-fitting computer program to obtain the potency and intrinsic activities of the test agents as previously described (Sharif et al. J. Pharmacol. Exp. Ther. 286: 1094-1102, 1998; Sharif et al. Invest. Opthalmol. Vis. Sci. 39:2562-2571, 1998; Kelly et al. J. Pharmacol. Exp. Ther. 304: 238-245, 2003). The sources of materials and reagents for such assays can be found in the references cited above.

[5] = target: T3, BK B2-Receptor in h-NPE cells (Homo sapiens, UniProt P30411); assay: Antagonism of BK-induced [Ca^2+]i mobilization in immortalized h-NPE cells; assay type: cell-based; conditions: read-out: Antagonist Potency (Ki; nM) vs BK (10 nM) in [Ca^2+]i Mobilization Assay, mean ± SEM or individual experiments
T3 construct: we discovered and pharmacologically characterized B2-receptor proteins in h-TM, h-CM and h-NPE cells; endogenous in cells; host or cells: immortalized human non-pigmented ciliary epithelial (h-NPE) cells
T3 sequence (P30411 1-391): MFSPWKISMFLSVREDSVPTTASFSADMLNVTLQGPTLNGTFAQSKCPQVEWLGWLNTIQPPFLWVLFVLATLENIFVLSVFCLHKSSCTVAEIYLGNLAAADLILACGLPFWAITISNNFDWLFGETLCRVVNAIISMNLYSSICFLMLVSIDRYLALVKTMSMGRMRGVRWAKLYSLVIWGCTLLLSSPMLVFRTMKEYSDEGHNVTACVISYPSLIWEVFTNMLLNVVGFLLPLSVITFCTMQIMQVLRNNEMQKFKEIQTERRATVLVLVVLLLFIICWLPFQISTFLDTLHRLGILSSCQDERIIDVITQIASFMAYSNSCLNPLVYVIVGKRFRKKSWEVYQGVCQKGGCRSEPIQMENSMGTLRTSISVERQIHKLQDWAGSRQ
Description: as §1, §2, §3

[6] = target: T4, BK B2-Receptor in h-TM cells (Homo sapiens, UniProt P30411); assay: Antagonism of BK-induced [Ca^2+]i mobilization in h-TM cells; assay type: cell-based; conditions: read-out: Antagonist Potency (Ki; nM) vs BK (10 nM) in [Ca^2+]i Mobilization Assay, mean ± SEM or individual experiments
T4 construct: we discovered and pharmacologically characterized B2-receptor proteins in h-TM, h-CM and h-NPE cells; endogenous in cells; host or cells: primary human trabecular meshwork (h-TM) cells
T4 sequence (P30411 1-391): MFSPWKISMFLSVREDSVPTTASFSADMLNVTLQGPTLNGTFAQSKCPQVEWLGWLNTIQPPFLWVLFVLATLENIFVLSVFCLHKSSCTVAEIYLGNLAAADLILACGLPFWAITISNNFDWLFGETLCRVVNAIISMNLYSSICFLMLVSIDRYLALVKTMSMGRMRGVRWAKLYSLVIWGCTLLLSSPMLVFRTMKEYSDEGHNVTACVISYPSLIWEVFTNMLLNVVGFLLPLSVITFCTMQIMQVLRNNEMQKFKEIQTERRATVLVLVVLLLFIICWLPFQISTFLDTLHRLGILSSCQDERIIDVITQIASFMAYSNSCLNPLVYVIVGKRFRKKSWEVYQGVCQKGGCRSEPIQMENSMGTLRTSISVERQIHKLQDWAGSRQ
Description: as §1
as §2, with “Instrument settings for a typical assay are the following: laser power 0.3-0.6 W, camera F-stop F/2, and exposure time 0.4 sec.” left out
as §3, with “The sources of materials and reagents for such assays can be found in the references cited above.” left out

[7] = system: B1-receptor mRNA; assay: Microarray analysis of B1-receptor mRNA in TGFβ2-treated human TM cells; assay type: cell-based; conditions: Glaucomatous h-TM cells, control 0.99 ± 0.58
[8] = system: B2-receptor mRNA; assay: Microarray analysis of B2-receptor mRNA in TGFβ2-treated human TM cells; assay type: cell-based

Molecule: N=C(N)NCCC[C@H](N)C(=O)N1CCC[C@H]1C(=O)N1CCC[C@H]1C(=O)NCC(=O)N[C@@H](Cc1ccccc1)C(=O)N[C@@H](CO)C(=O)N1CCC[C@H]1C(=O)N[C@@H](Cc1ccccc1)C(=O)O [Des-Arg^9-BK]
- effect on rabbit IOP [1]: not
- Emax [2]: 70 to 77%

Molecule: CCCC[P+](CCCC)(CCCC)Cc1ccc(NC(=O)[C@H](Cc2ccc3ccccc3c2)NC(=NC2CCCCC2)NC2CCCCC2)cc1.[Cl-] [WIN-64338]
- % Change in IOP (mmHg) ([3]; Dose 1/1 hr post-dose): 1.7 ± 1.6%
- % Change in IOP (mmHg) ([3]; Dose 1/3 hr post-dose): −10.4 ± 2.8%
- % Change in IOP (mmHg) ([3]; Dose 1/6 hr post-dose): 1.3 ± 1.3%
- modulation of IOP (in words) ([3]; topically administered 300 μg, conscious cynomolgus monkeys): failed to modulate IOP

- Ki [4]: 13 nM and 4 nM
- Ki [6]: 69 nM and 19 nM
Molecule: Cc1nc2c(OCc3c(Cl)ccc(N(C)C(=O)CNC(=O)/C=C/c4ccc(C(=O)N(C)C)cc4)c3Cl)cccn2c1Br [FR-167344]
- Ki [5]: 393 nM and 223 nM

B1: TGFβ2: cytokine transforming growth factor-β2 (protein, UniProt P61812 303-414, looked up)
Transforming growth factor …: ALDAAYCFRNVQDNCCLRPLYIDFKRDLGWKWIHEPKGYNANFCAGACPYLWSSDTQHSRVLSLYNTINPEASASPCCVSQDLEPLTILYYIGKTPKIEQLSNMIVKSCKCS
- Normalized level of B1-receptor mRNA (GC-RMA, mean ± SEM) ([7]; after 1.5 hr): 1.54 ± 0.09
- Normalized level of B1-receptor mRNA (GC-RMA, mean ± SEM) ([7]; after 16 hr): 0.53 ± 0.05
- Normalized level of B2-receptor mRNA (GC-RMA, mean ± SEM) ([8]; Glaucomatous h-TM cells, after 1.5 hr, control 0.99 ± 0.04): 0.97 ± 0.06
- Normalized level of B2-receptor mRNA (GC-RMA, mean ± SEM) ([8]; Glaucomatous h-TM cells, after 16 hr, control 0.99 ± 0.04): 0.24 ± 0.06
- Normalized level of B2-receptor mRNA (GC-RMA, mean ± SEM) ([8]; Normal h-TM cells, after 1.5 hr, control 0.99 ± 0.06): 0.68 ± 0.05
- Normalized level of B2-receptor mRNA (GC-RMA, mean ± SEM) ([8]; Normal h-TM cells, after 16 hr, control 0.99 ± 0.06): 0.14 ± 0.11
